Measured values reported in patent publication US8785160B2, “Prebiotic formulations and methods of use” (Ritter Pharmaceuticals, Inc., priority 2009, dated 2014).

Tested on: Bifidobacterium species
Assay: Comparative growth of Bifidobacterium species and strains on 2% carbohydrate in scratch MRS
Format: cell-based
Settings: scratch MRS + 2% carbohydrate, 37 C

SMILES: OC[C@H]1O[C@@H](O[C@H]2[C@H](O)[C@@H](O)C(O)O[C@@H]2CO)[C@H](O)[C@@H](O)[C@H]1O (stereo partly shown) [lactose]
- comparative growth of Bifidobacterium species on four carbohydrate sources (glucose, lactose, GOS1, GOS2): none of the Bifidobacterium strains used in these experiments grew on lactose
